Measured values from US20210220340A1, “COMPOSITION FOR PREVENTION OR TREATMENT OF NEURODEGENERATIVE DISEASE” (THE ASAN FOUNDATION, priority 2018, published 2021).
Counter-ions that a name gives are not always drawn. Like-named read-outs stand apart in the source and are kept apart here. One block for each compound: values may come before it.

What was measured:
all PDE isoforms = test: HTS using all PDE isoforms as targets; format: biochemical; settings: for inhibitory efficacy in all PDE isoforms: Example 18 screening, compared with cilostazol; for IC50: across PDE isoforms, FIG. 31
Protocol: Compounds included in the library of 800 FDA-approved drugs were diluted 1/4 from a concentration of 100 μM and dispensed into each well in 96-well plates, and mixed with a PDE reactant to allow a PDE reaction with the drug for 1 hour at a constant temperature.
The experiment was carried out in the same manner as used in screening of the FDA-approved drug library. […] Each of the screening library drugs were diluted 1/4 from 100 μM and dispensed into each well in 96-well plates, and mixed with a PDE reactant, followed by allowing a reaction between the drug and PDE for 1 hour for storage. After a stop solution was mixed with a AMP detection agent, the mixture was dispensed at 20 μl per well to allow a reaction for 10 minutes, followed by immediately measuring luminescence, and the experiment was performed according to a protocol provided by the kit used herein.
The first selection started with PDE3 as a target, and after candidate drugs were selected, all PDE isoforms were tested.

mouse pericytes [1] = test: Lysosome pH in bafilomycin A1-treated pericytes (LysoSensor, confocal microscope); format: cell-based; settings: mouse pericytes treated with bafilomycin A1 alone
Excerpt: A system that can visualize changes in intracellular lysosome pH with LysoSensor, which is a pH-sensitive lysosomal dye, in mouse pericytes using a confocal microscope was established (refer to Example 6) to observe whether amlexanox (AMX) is involved in the pH change of lysosomes in cells.
FIG. 19 is a set of time-dependent confocal microscope images (left) of mouse pericytes when being treated with Bafilomycin A1, which is a vATPase inhibitor, and then stained with LysoSensor, and quantified data (right) thereof.
Here, the images on the left side of FIG. 19 are obtained by treating mouse pericytes with bafilomycin A1, which is a vATPase inhibitor, and analyzing the cells using LysoSensor over time by a confocal microscope (top), and by treating the bafilomycin A1-treated mouse pericytes with the finally selected amlexanox (AMX) and analyzing the cells using LysoSensor over time by a confocal microscope (bottom).

cathepsin L = test: Lysosomal function activity in astrocytes: degree of hydrolysis of cathepsin L; format: cell-based, mouse; settings: mouse astrocytes treated with bafilomycin A1 alone
Protocol: (§1) Samples stained with enzymatic dyes such as cathepsin B and cathepsin L were administered into the cell culture to allow a reaction for 30 minutes, and changes in activity of lysosomes in cells were confirmed using a confocal microscope.
(§2) Astrocytes were stained with a fluorescence-tagged lysosomal protein, and the degrees of hydrolysis of cathepsin B and cathepsin L, which are lysosomal proteins, were analyzed.
(§3) FIG. 21 is a set of time-dependent confocal microscope images of mouse astrocytes, which are treated with bafilomycin A1, which is a vATPase inhibitor, to assess the degree of hydrolysis of cathepsin B (top) and cathepsin L (bottom).

cathepsin B = test: Lysosomal function activity in astrocytes: degree of hydrolysis of cathepsin B; format: cell-based, mouse; settings: mouse astrocytes treated with bafilomycin A1 alone
Protocol: as §1, §2, §3

mouse astrocytes = test: Lysosome pH change in astrocytes (LysoSensor Green DND-189, acridine orange); format: cell-based; settings: amyloid beta-accumulated
Protocol: For astrocyte culture, first, cerebral cortices (neocortices) were dissociated from murine fetuses (3 weeks old), and the obtained cortical tissue was divided into single cells. Subsequently, the single cells were seeded, and the cultured astrocytes were stored using a culture medium (DMEM 7% FBS+7% HS+100 U/mL penicillin+100 μg/mL […]) in a humidified incubator at 37[…] under a condition of 5% carbon dioxide. After DIV 10-14, cells grown to 80-90% or more confluence were used, and before an experiment, the cells were washed twice with warm MEM and used. New cells were cultured and used each time without passaging.
FIG. 8A is a set of images that visualize pH changes for 0 to 1 hour in respective groups of mouse astrocytes, which are stained with LysoSensor Green DND-189, and then treated with either amyloid beta (Aβ) or amyloid beta and cilostazol (Aβ+cilo).

mouse pericytes [2] = test: Amyloid beta aggregation in pericytes treated with cilostazol (confocal microscopy, western blotting); format: cell-based; settings: 1 hour (confocal) and 24 hours (western blot)
Protocol: Each type of cell was cultured under the culture conditions, a cell culture was restored, followed by preparing a particulate fraction in a 50 mM Tris buffer. Proteins obtained from the cell culture developed in a SDS polyacrylamide gel, transferred to an immobilon-P membrane (Millipore, USA), and reacted with antibodies overnight. Next day, western blots were washed, reacted with peroxidase-linked secondary antibodies at room temperature for 1 hour, followed by staining bands with 4-chloro-1-naphthol. From the result of Example 1, PDE3, which is specifically highly expressed in pericytes, is selected as a target material. It was observed how the treatment of cilostazol known as a specific inhibitor of PDE3 affects amyloid beta accumulation. FIG. 5 is a set of confocal microscope images of mouse pericytes which are cultured and then treated with CTL (control), amyloid beta (Aβ) and cilostazol (amyloid beta+cilostazol; +cilo) for 1 hour, respectively. The graph on the right side of FIG. 5 is obtained by observing pericytes treated with CTL (control), amyloid beta (Aβ) and cilostazol (amyloid beta+cilostazol; +cilo) for 1 hour, and measuring the fluorescence intensities thereof. […] The graph on the right side of FIG. 6 is obtained by measuring an oligomer/actin expression level and a monomer/actin expression level in each group.

Compound: COC1=CC(c2cc3ccccc3[nH]2)=N/C1=C\c1[nH]c(C)cc1C [obatoclax mesylate]
- inhibitory efficacy in all PDE isoforms (all PDE isoforms): high inhibitory efficacy

Compound: Cc1nc(-c2ccc(OCC(C)C)c(C#N)c2)sc1C(=O)O [febuxostat]
- inhibitory efficacy in all PDE isoforms (all PDE isoforms): high inhibitory efficacy

Compound: Cc1ccc(NC(=O)c2ccc(CN3CCN(C)CC3)cc2)cc1Nc1nc(-c2cccnc2)cs1 [masitinib]
- inhibitory efficacy in all PDE isoforms (all PDE isoforms): high inhibitory efficacy

Compound: CO/C1=C\C(C)=C\[C@@H](C)[C@@H](O)[C@@H](C)C/C(C)=C/C=C/[C@H](OC)[C@@H]([C@@H](C)[C@@H](O)[C@H](C)[C@@]2(O)C[C@@H](O)[C@H](C)[C@@H](C(C)C)O2)OC1=O [bafilomycin A1]
- lysosomal pH (mouse pericytes [1]): increased
- cathepsin L (lysosomal protein activity) (cathepsin L): decreased
- cathepsin B (lysosomal protein activity) (cathepsin B): decreased

Compound: O=C1CCc2cc(OCCCCc3nnnn3C3CCCCC3)ccc2N1 [cilostazol]
- lysosomal function (mouse astrocytes): normalized
- pH of lysosomes (mouse astrocytes): acidified
- amount of aggregated amyloid beta (mouse pericytes [2]): significantly reduced

Compound: Oc1ccc(/C=C/c2cc(O)cc(O)c2)cc1 [resveratrol]
- inhibitory efficacy in all PDE isoforms (all PDE isoforms): high inhibitory efficacy

- IC50 (all PDE isoforms; read-out: inhibition value of each isoform, lowest): ≥ 0.0003 µM
- IC50 (all PDE isoforms; read-out: inhibition value of each isoform, maximum): ≤ 5.5 µM
Compound: Oc1cc(O)cc(/C=C/c2ccc(O)c(O)c2)c1 [piceathanol]
- inhibitory efficacy in all PDE isoforms (all PDE isoforms): high inhibitory efficacy

Compound: CCc1ccc(OCc2ccccc2C(=O)Nc2ccc3nc(C)cc(N)c3c2)cc1.Cl [JTC-801]
- inhibitory efficacy in all PDE isoforms (all PDE isoforms): high inhibitory efficacy

Compound: Cc1nc(N)sc1-c1ccnc(Nc2ccc(N3CCOCC3)cc2)n1 [CYC116]
- inhibitory efficacy in all PDE isoforms (all PDE isoforms): high inhibitory efficacy

Compound: zafirlukast
- inhibitory efficacy in all PDE isoforms (all PDE isoforms): high inhibitory efficacy

Compound: O=C(O)c1cccc(-c2noc(-c3ccccc3F)n2)c1 [ataluren]
- inhibitory efficacy in all PDE isoforms (all PDE isoforms): high inhibitory efficacy

Compound: Cc1ccc(NC(=O)c2ccc(CN3CCN(C)CC3)cc2)cc1Nc1nccc(-c2cccnc2)n1 [imatinib mesylate]
- inhibitory efficacy in all PDE isoforms (all PDE isoforms): high inhibitory efficacy

Compound: OCc1ccc(-c2ccc(-c3ccc(CO)s3)o2)s1 [RITA, 5,5′-(2,5-furandiyl)bis-2-thiophenemethanol]
- inhibitory efficacy in all PDE isoforms (all PDE isoforms): high inhibitory efficacy

Compound: pifithrin
- inhibitory efficacy in all PDE isoforms (all PDE isoforms): high inhibitory efficacy

Compound: Oc1c(Cl)cc(Cl)c(Cl)c1Cc1c(O)c(Cl)cc(Cl)c1Cl [hexachloropene]
- inhibitory efficacy in all PDE isoforms (all PDE isoforms): high inhibitory efficacy

Compound: CN1CCN(c2ccc3nc(-c4c(N)c5c(F)cccc5[nH]c4=O)[nH]c3c2)CC1 [dovitinib]
- inhibitory efficacy in all PDE isoforms (all PDE isoforms): high inhibitory efficacy
